In PubChem BioAssay (NCI):
Where “and” joins values, the source holds several entries; their conditions need not be identical. Identical values can stand only once.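 In this assay, cells in 96-well plates receive the compound at five concentrations for 48 hours. Endpoints are linearly interpolated between the surrounding concentrations. GI50 = concentration required for 50% inhibition of growth. TGI: total growth inhibition.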 Where a SMILES comes first, the peptide text is derived from it. [ ]: non-standard residue; d: D form. The star is where a group is joined. ξ: configuration not given here. dIva = CC[C@@](C)(N)C(=O)O; Aib = CC(C)(N)C(=O)O; ξP = O=C(O)C1CCCN1; βAla = NCCC(=O)O; X5 = OCN*

Experiments:
Experiment in all cases: inhibition of tumour cell growth, NCI panel, 48 h
KM12 colon = system: KM12 colon
SF-268 CNS = system: SF-268 CNS
CCRF-CEM leukemia = system: CCRF-CEM leukemia
SK-MEL-5 melanoma = system: SK-MEL-5 melanoma
SNB-19 CNS = system: SNB-19 CNS
SN12C renal = system: SN12C renal
HOP-92 NSCLC = system: HOP-92 NSCLC
CAKI-1 renal = system: CAKI-1 renal
EKVX NSCLC = system: EKVX NSCLC
MOLT-4 leukemia = system: MOLT-4 leukemia

CC(C)Cn1cnc2c(SCc3ccccn3)nc(N)nc21
TGI (KM12 colon): > 100 µM
TGI (SF-268 CNS): > 100 µM
TGI (CCRF-CEM leukemia): > 100 µM
TGI (SK-MEL-5 melanoma): > 100 µM
TGI (SNB-19 CNS): > 100 µM
TGI (SN12C renal): > 100 µM
TGI (HOP-92 NSCLC): > 100 µM
TGI (CAKI-1 renal): > 100 µM
TGI (EKVX NSCLC): > 100 µM

O=C(O)CSc1nnc2c3ccccc3c3ccccc3c2n1
TGI (KM12 colon): > 100 µM
TGI (SF-268 CNS): > 100 µM
TGI (SK-MEL-5 melanoma): > 100 µM
TGI (SNB-19 CNS): > 100 µM
TGI (SN12C renal): > 100 µM
TGI (HOP-92 NSCLC): > 100 µM
TGI (CAKI-1 renal): > 100 µM
TGI (EKVX NSCLC): > 100 µM

CCC(=O)Oc1ccc(/C=N/NC(N)=S)nc1
GI50 (KM12 colon): 4.69 µM
TGI (KM12 colon): > 100 µM
GI50 (SF-268 CNS): 3.46 µM
TGI (SF-268 CNS): > 100 µM
GI50 (CCRF-CEM leukemia): 2.81 µM
TGI (CCRF-CEM leukemia): > 100 µM
GI50 (SK-MEL-5 melanoma): 3.01 µM
TGI (SK-MEL-5 melanoma): 77.2 µM
GI50 (SNB-19 CNS): 14.2 µM
TGI (SNB-19 CNS): > 100 µM
GI50 (SN12C renal): 3.75 µM
TGI (SN12C renal): > 100 µM
GI50 (CAKI-1 renal): 4.97 µM
TGI (CAKI-1 renal): > 100 µM
GI50 (MOLT-4 leukemia): 3.3 µM
TGI (MOLT-4 leukemia): > 100 µM
GI50 (EKVX NSCLC): 43.7 µM
TGI (EKVX NSCLC): > 100 µM

COc1ccc(CNC(=O)c2c(C)n([O-])c3cc(F)c(F)cc3[n+]2=O)cc1
GI50 (KM12 colon): 15.7 µM
TGI (KM12 colon): 35.5 µM
GI50 (SF-268 CNS): 4.4 µM
TGI (SF-268 CNS): 15.7 µM
GI50 (CCRF-CEM leukemia): 3.2 µM
TGI (CCRF-CEM leukemia): 12.4 µM
GI50 (SK-MEL-5 melanoma): 12.7 µM
TGI (SK-MEL-5 melanoma): 25.3 µM
GI50 (SNB-19 CNS): 13.1 µM
TGI (SNB-19 CNS): 25.8 µM
GI50 (SN12C renal): 14.2 µM
TGI (SN12C renal): 27.2 µM
GI50 (HOP-92 NSCLC): 14.9 µM
TGI (HOP-92 NSCLC): 32 µM
GI50 (MOLT-4 leukemia): 4.61 µM
TGI (MOLT-4 leukemia): 21.2 µM

CC[C@@](C)(NC(=O)[C@H](C)NC(=O)CCNC(=O)C(C)(C)NC(=O)[C@H](C)NC(=O)[C@@H]1CCCN1C(=O)[C@@](C)(CC)NC(=O)[C@H](Cc1ccccc1)NC(=O)C1CCCN1C(=O)C(C)(C)NC(=O)C1CCCN1C(=O)C(C)(C)NC(C)=O)C(=O)NCCC(=O)N[C@@H](CC(C)C)C(=O)NC(C)(C)C(=O)NCCC(=O)N[C@@H](CC(C)C)C(=O)NC(C)(C)C(=O)NC(C)(C)C(=O)N[C@@H](CC(C)C)C(=O)NCCC(=O)NCO (stereo partly drawn) (Ac-[Aib][ξP][Aib][ξP]F[dIva]PA[Aib][βAla]A[dIva][βAla]L[Aib][βAla]L[Aib][Aib]L[βAla]-X5)
GI50 (KM12 colon): 0.168 µM
TGI (KM12 colon): 0.368 µM
GI50 (SF-268 CNS): 0.143 µM
TGI (SF-268 CNS): 0.368 µM
GI50 (CCRF-CEM leukemia): 0.224 µM
TGI (CCRF-CEM leukemia): 0.577 µM
GI50 (SK-MEL-5 melanoma): 0.0991 µM
TGI (SK-MEL-5 melanoma): 0.302 µM
GI50 (SNB-19 CNS): 0.0952 µM
TGI (SNB-19 CNS): 0.304 µM
GI50 (SN12C renal): 0.119 µM
TGI (SN12C renal): 0.373 µM
GI50 (CAKI-1 renal): 0.231 µM
TGI (CAKI-1 renal): 0.448 µM
GI50 (MOLT-4 leukemia): 0.306 µM
TGI (MOLT-4 leukemia): 0.645 µM
GI50 (EKVX NSCLC): 0.0661 µM
TGI (EKVX NSCLC): 0.275 µM

Nc1nc(N)c(-c2ccc(Cl)cc2)c(/C=C/c2ccc([N+](=O)[O-])cc2)n1
GI50 (KM12 colon): 23.4 µM
TGI (KM12 colon): > 100 µM
GI50 (SF-268 CNS): 8.32 µM
TGI (SF-268 CNS): 93.9 µM
GI50 (CCRF-CEM leukemia): 6.17 µM
TGI (CCRF-CEM leukemia): > 100 µM
GI50 (SK-MEL-5 melanoma): 3.83 µM
TGI (SK-MEL-5 melanoma): > 100 µM
GI50 (SNB-19 CNS): 16.1 µM
TGI (SNB-19 CNS): > 100 µM
GI50 (SN12C renal): 8.02 µM
TGI (SN12C renal): > 100 µM
GI50 (CAKI-1 renal): 4.92 µM
TGI (CAKI-1 renal): > 100 µM
GI50 (MOLT-4 leukemia): 8.27 µM
TGI (MOLT-4 leukemia): > 100 µM

CCN(CC)c1ccc(N=C2C=CC(=C(C#N)C#N)c3ccccc32)c(C)c1
TGI (CCRF-CEM leukemia): 6.1 µM
TGI (SK-MEL-5 melanoma): 2.92 µM
TGI (SNB-19 CNS): 13.1 µM
TGI (SN12C renal): 7.86 µM
TGI (HOP-92 NSCLC): 2.19 µM
TGI (CAKI-1 renal): 5.4 µM
TGI (MOLT-4 leukemia): 9.63 µM
TGI (EKVX NSCLC): 18.4 µM

O=S1Cc2ccccc2CSS1 (stereo not drawn)
TGI (KM12 colon): 31.6 µM
TGI (SF-268 CNS): 74.2 µM
TGI (SK-MEL-5 melanoma): 26.3 µM
TGI (SNB-19 CNS): > 100 µM
TGI (SN12C renal): 29.4 µM
TGI (HOP-92 NSCLC): 31.8 µM
TGI (CAKI-1 renal): 35.8 µM
TGI (MOLT-4 leukemia): 52.1 µM
TGI (EKVX NSCLC): 53.9 µM

CC1(C)N=C(N)N=C(N)N1c1ccc(CCC(=O)Nc2cccc(S(=O)(=O)F)c2)cc1
GI50 (KM12 colon): 10.6 µM
TGI (KM12 colon): > 100 µM
GI50 (SF-268 CNS): 4.74 µM
TGI (SF-268 CNS): > 100 µM
GI50 (SK-MEL-5 melanoma): 4.83 µM
TGI (SK-MEL-5 melanoma): > 100 µM
GI50 (SNB-19 CNS): 7.37 µM
TGI (SNB-19 CNS): > 100 µM
GI50 (SN12C renal): 4.67 µM
TGI (SN12C renal): > 100 µM
GI50 (HOP-92 NSCLC): > 100 µM
TGI (HOP-92 NSCLC): > 100 µM
GI50 (CAKI-1 renal): > 100 µM
TGI (CAKI-1 renal): > 100 µM
GI50 (MOLT-4 leukemia): 19.8 µM
TGI (MOLT-4 leukemia): > 100 µM
GI50 (EKVX NSCLC): > 100 µM
TGI (EKVX NSCLC): > 100 µM

NS(=O)(=O)c1ccc(N=Nc2c(=O)[nH]c3ccc4[nH]cccc4c23)cc1
GI50 (KM12 colon): 0.792 µM
TGI (KM12 colon): 4.32 µM
GI50 (SF-268 CNS): 0.33 µM
TGI (SF-268 CNS): > 5.99 µM
GI50 (CCRF-CEM leukemia): 0.202 µM
TGI (CCRF-CEM leukemia): > 25 µM
GI50 (SK-MEL-5 melanoma): 0.256 µM
TGI (SK-MEL-5 melanoma): 4.69 µM
GI50 (SNB-19 CNS): 0.428 µM
TGI (SNB-19 CNS): > 25 µM
GI50 (SN12C renal): 0.47 µM
TGI (SN12C renal): > 25 µM
GI50 (CAKI-1 renal): 4.28 µM
TGI (CAKI-1 renal): > 25 µM
GI50 (MOLT-4 leukemia): 0.632 µM
TGI (MOLT-4 leukemia): 3.31 µM
GI50 (EKVX NSCLC): 2.1 µM
TGI (EKVX NSCLC): > 25 µM

CC(=O)CC(=O)ON(C)C(=O)Cc1ccccc1
TGI (KM12 colon): > 100 µM
TGI (SF-268 CNS): > 100 µM
TGI (CCRF-CEM leukemia): > 100 µM
TGI (SK-MEL-5 melanoma): > 100 µM
TGI (SNB-19 CNS): > 100 µM
TGI (SN12C renal): > 100 µM
TGI (HOP-92 NSCLC): > 100 µM
TGI (CAKI-1 renal): > 100 µM
TGI (MOLT-4 leukemia): > 100 µM

C=C1C(OCCO)OC2O[C@]3(C)CCC4[C@H](C)CCC1C24OO3 (stereo partly drawn)
GI50 (KM12 colon): 6.04 µM
TGI (KM12 colon): > 100 µM
GI50 (SF-268 CNS): 43.4 µM
TGI (SF-268 CNS): > 100 µM
GI50 (CCRF-CEM leukemia): 4.92 µM
TGI (CCRF-CEM leukemia): 28.4 µM
GI50 (SK-MEL-5 melanoma): 23.8 µM
TGI (SK-MEL-5 melanoma): > 100 µM
GI50 (SNB-19 CNS): > 100 µM
TGI (SNB-19 CNS): > 100 µM
GI50 (CAKI-1 renal): 19 µM
TGI (CAKI-1 renal): 40.5 µM
GI50 (MOLT-4 leukemia): 1.96 µM
TGI (MOLT-4 leukemia): 27.9 µM
GI50 (EKVX NSCLC): 23.2 µM
TGI (EKVX NSCLC): > 100 µM

COc1ccc([Se]c2ccc(OC)cc2)cc1
TGI (KM12 colon): > 100 µM
TGI (SF-268 CNS): > 100 µM
TGI (CCRF-CEM leukemia): > 100 µM
TGI (SK-MEL-5 melanoma): > 100 µM
TGI (SNB-19 CNS): > 100 µM
TGI (SN12C renal): > 100 µM
TGI (HOP-92 NSCLC): 98.7 µM
TGI (CAKI-1 renal): > 100 µM
TGI (MOLT-4 leukemia): > 100 µM

C=C1CC(CC(=O)C(C)CC2CC(=C)C(=O)O2)OC1=O (stereo not drawn)
TGI (KM12 colon): 22.6 µM
TGI (SF-268 CNS): 48.6 µM
TGI (CCRF-CEM leukemia): 26.8 µM
TGI (SK-MEL-5 melanoma): > 100 µM
TGI (SNB-19 CNS): > 100 µM
TGI (SN12C renal): 34.1 µM
TGI (HOP-92 NSCLC): 32.1 µM
TGI (MOLT-4 leukemia): 29.7 µM
TGI (EKVX NSCLC): > 100 µM

NC(N)=NC(N)=NCc1ccco1
GI50 (KM12 colon): > 1250 µM
TGI (KM12 colon): > 1250 µM
GI50 (SF-268 CNS): > 1250 µM
TGI (SF-268 CNS): > 1250 µM
GI50 (SK-MEL-5 melanoma): 363 µM and 119 µM
TGI (SK-MEL-5 melanoma): > 1250 µM
GI50 (SNB-19 CNS): > 1250 µM
TGI (SNB-19 CNS): > 1250 µM
GI50 (SN12C renal): > 1250 µM
TGI (SN12C renal): > 1250 µM
GI50 (HOP-92 NSCLC): 116 µM
GI50 (CAKI-1 renal): 758 µM
TGI (CAKI-1 renal): > 1250 µM
GI50 (MOLT-4 leukemia): > 1250 µM
TGI (MOLT-4 leukemia): > 1250 µM
GI50 (EKVX NSCLC): 117 µM and 31.7 µM
TGI (EKVX NSCLC): > 1250 µM

COc1ccc(-c2cc(=O)c3cccnc3[nH]2)cc1
TGI (KM12 colon): > 100 µM
TGI (SF-268 CNS): > 100 µM
TGI (CCRF-CEM leukemia): 85.6 µM
GI50 (SK-MEL-5 melanoma): 35 µM
TGI (SK-MEL-5 melanoma): > 100 µM
TGI (SNB-19 CNS): > 100 µM
TGI (SN12C renal): > 100 µM
TGI (CAKI-1 renal): > 100 µM
TGI (MOLT-4 leukemia): > 100 µM
TGI (EKVX NSCLC): > 100 µM
